In patent US20200188540A1, “CONFORMATIONALLY STRAINED TRANS-CYCLOALKENES FOR RADIOLABELING” (UNIVERSITY OF DELAWARE, priority 2015, published 2020):

Legend:
in vivo = conditions: mouse, iv, 3.7 MBq (100 uCi), total radioactivity
Method: (§1) The localization of ^18F-15 in human U87MG tumor-bearing mice (n=5) was performed by static microPET scans at multiple time-point post tail vein injection. Selected decay-corrected coronal images at different time points were obtained after injection of 3.7 MBq (100 μCi) of ^18F-15. […] Data are expressed as average +/−SD.
(§2) Animal procedures were performed according to a protocol approved by the UNC Institutional Animal Care and Use Committee. PET scans and image analysis were performed using a small animal PET scanner. Human U87MG tumor-bearing mice were anesthetized using 2% isoflurane and injected with 3.7 MBq (100 μCi) of ^18F-15 via the tail vein. At 0.5, 1.0, 2.0, and 4.0 h post injection, static emission scans were acquired for 10 min. Normal nude mice were injected with 3.7 MBq (100 μCi) of the Diels-Alder conjugate obtained by combining ^18F-9 and 11), or in a separate experiment by injecting only ^18F-9 using the same protocol. Raw PET images were reconstructed using 2D ordered subset expectation maximization (OSEM) algorithm. No background correction was performed. Regions of interest (ROI) were manually drawn over the tumor and other organs on the decay corrected coronal images. Based on the assumption that the tissue density is 1 g/mL, the ROIs were converted to % ID/g by dividing dose per gram at ROI by injected dose.
(§3) Quantitative data were expressed as mean±SD. Means were compared using one-way ANOVA and Student's t test. P values<0.05 were considered statistically significant.

human U87MG tumor = assay: in vivo
Method: as §1, §2, §3

[1] = In vitro stability in fetal bovine serum (FBS); format: in vitro ADME; conditions: 37° C.
Method: (§4) An aliquot of the solution (˜25 μCi) was taken out and loaded on HPLC at 1 h and 2 h time points for analysis. ^18F-9 was also incubated in FBS at 37° C. and after 1 h, an aliquot of the solution (˜25 μCi) was taken out and added to an equal volume of TFA. Similarly, ^18F-15 was also incubated in FBS at 37° C., and at 2 and 4 h time points, aliquots of the solution (˜25 μCi) were taken and added to an equal volume of TFA. For each sample, the mixture was centrifuged at 14000 rpm for 5 min. The supernatant was then diluted with 1 mL water and loaded on C18 Sep-Pak. After washing with 1 mL water, the cartridge was eluted with 0.5 mL acetonitrile. The water fraction and acetonitrile fraction were combined and loaded on HPLC for analysis

[2] = In vitro stability in 1× PBS buffer; format: physicochemical; conditions: 37° C.; for radiochemical purity after incubation in 1× PBS: 2 hours
Method: as §4

[3] = Stopped-flow kinetic analysis of Diels-Alder reaction of sTCO diastereomers with PEGylated tetrazine 11; conditions: for rate constant k2 with tetrazine 11: 55:45 MeOH:water at 25° C., stopped flow; for Mean k2: average of four sTCO concentrations, spread printed in cells below; for Mean k2 / k2 / kobs: tetrazine 11 0.05 mM, water:methanol 45:55, 25° C.; for kobs: in s-1 (unit assumed)
Method: Stopped flow kinetic analysis was used to measure the rate of the Diels-Alder reaction between tetrazine derivative 11 and anti- and syn-diastereomers of sTCO (4 and 5, respectively). […] The latter is the fastest rate constant that has been described for a bioorthogonal reaction. For the present study, the inventors used stopped flow analysis to compare the relative rate of the syn- and anti-diastereomers 5 and 4 with tetrazine 11 in mixed organic/aqueous media (55:45 MeOH:water at 25° C.). As expected, the rates in MeOH:water were ˜9 fold slower than the measurements made in purely aqueous media, but still extremely rapid. The rate constant for the syn-diastereomer 5 with tetrazine 11 was k2 3.7×10^4 (+/−0.1×10^3) M^−1s^−1, and the anti-diastereomer 4 reacted with a rate constant k2 3.3×10^4 (+/−0.1×10^3) M^−1s^−1. Because the syn-diastereomer was more reactive it was chosen for further development
The second order rate constant was measured under pseudo-first order conditions using an excess of the appropriate sTCO diastereomer (4 or 5), and by following the exponential decay of absorbance due to the tetrazine chromophore of 11 at 298 nm using an SX 18MV-R stopped-flow spectrophotometer (Applied Photophysics Ltd.). For each run, equal volumes of 45:55 water:methanol solutions of sTCO and PEGylated tetrazine 11 were mixed in the stopped flow device. Reactions were carried out with tetrazine 11 at 0.05 mM and final concentrations of 0.245, 0.49, 0.98 and 1.47 mM for the syn-diastereomer 5. Similarly, reactions were carried out with tetrazine 11 at 0.05 mM and final concentrations of 0.25, 0.50, 1.00 and 1.50 mM for the anti-diastereomer 4. A total of 400 data points were recorded over a period of 1 second, and each sample was performed in sextuplicate at 298 K. The kobs was determined by nonlinear regression analysis of the data points using Prism software (v. 6.00, GraphPad Software Inc.).
The reaction between sTCOs 4 & 5 and the PEGylated tetrazine 11 was measured under pseudo-first order conditions in water:methanol 45:55 by following the exponential decay of the tetrazine at 298 nm over time using an SX 18MV-R stopped flow spectrophotometer (Applied Photophysics Ltd.). Solutions were prepared for the sTCO concentrations see table below water:methanol 45:55) and the tetrazine (0.1 mM in water:methanol 45:55) and thermostatted in the syringes of the spectrophotometer before measuring. 400 data points were recorded over a period of 1 second, and performed in sextuplicate at 298 K. The kobs was determined by nonlinear regression analysis of the data points using Prism software (v. 6.00, GraphPad Software Inc.).
• PEGylated tetrazine 11 at 25° C. in water:methanol (45:55) measured under pseudo first order conditions using SX 18MV-R stopped flow spectrophotometer. Values were determined from an average of four runs. Synthesis and Characterization of a Conformationally Strained Trans-Cyclooctene with a Cis-Fused Cyclopentane Ring

[4] = microPET imaging in normal (non-tumor bearing) nude mice; format: in vivo; conditions: normal nude mouse
Method: The inventors also performed microPET imaging with a normal (non-tumor bearing) nude mouse that had been injected with ^18F-9. […] The inventors also analyzed the clearance of the compound obtained by combining ^18F-9 with 11. This Diels-Alder conjugate—and analog of ^18F-15 that lacks the RGD moiety—still remained in the blood circulatory system after 4 hours. The blood uptake was 2.4% ID/g at 4 h post injection. The inventors have previously reported ^18F-labeled RGD probes derived from trans-cyclooctene 1.
No background correction was performed.

N=C(N)NCCC[C@@H]1NC(=O)C(CCCCNC(=O)CCOCCOCCOCCOCCOCCOCCOCCOCCOCCOCCOCCOCCNC(=O)OCc2ccc(C3=NNC(c4ccccc4)=C4CC[C@H]5[C@@H](CCC34)[C@H]5COCCOCCOCCF)cc2)NC(=O)[C@@H](Cc2ccc(O)cc2)NC(=O)[C@H](CC(=O)O)NC(=O)CNC1=O (stereo partly drawn) [^18F-15]
tissue uptake at 0.5 h (in vivo; tumor (U87MG)): 5.3 %ID/g
tissue uptake at 1 h (in vivo; tumor (U87MG)): 6.9 %ID/g
tissue uptake at 2 h (in vivo; tumor (U87MG)): 7.5 %ID/g
tissue uptake at 4 h (in vivo; tumor (U87MG)): 8.9 %ID/g
tissue to tissue ratio at 4 h (in vivo; tumor and kidney): 2.4
tissue to tissue ratio at 4 h (in vivo; tumor and liver): 1.6
tumor uptake relative to other major organs (human U87MG tumor; 4 h post injection): 1.6-2.4 fold
tracer uptake in tumor, blocking experiment (human U87MG tumor; co-injected with non-radio labeled cRGDyK (200 μg), 1 h post injection): 4.8+/−0.3%
purity in fetal bovine serum ([1]; 2 hours post incubation): 96.7%
purity in fetal bovine serum ([1]; 4 hours post incubation): 94.5%
radiochemical purity after incubation in 1× PBS [2]: 98.5%

OCC1C2CCC=CCCC12 (stereo not drawn) [Compound 4]
rate constant k2 with tetrazine 11 [3]: 3.3×10^4 (+/−0.1×10^3) M^−1s^−1
Mean k2 [3]: 31,700 M^−1s^−1
k2 ([3]; resulting sTCO 0.25 mM): 29832 M⁻¹ s⁻¹
kobs ([3]; resulting sTCO 0.25 mM): 7.458
k2 ([3]; resulting sTCO 0.5 mM): 31680 M⁻¹ s⁻¹
kobs ([3]; resulting sTCO 0.5 mM): 15.84
k2 ([3]; resulting sTCO 1 mM): 32510 M⁻¹ s⁻¹
kobs ([3]; resulting sTCO 1 mM): 32.51
k2 ([3]; resulting sTCO 1.5 mM): 32653 M⁻¹ s⁻¹
kobs ([3]; resulting sTCO 1.5 mM): 48.98

OC[C@H]1[C@H]2CC/C=C/CC[C@@H]12 [Compound 5, (rel-1R,8S,9S,4E)-Bicyclo[6.1.0]non-4-ene-9-ylmethanol]
rate constant k2 with tetrazine 11 [3]: 3.7×10^4 (+/−0.1×10^3) M^−1s^−1
Mean k2 [3]: 36,100 M^−1s^−1
k2 ([3]; resulting sTCO 0.245 mM): 34347 M⁻¹ s⁻¹
kobs ([3]; resulting sTCO 0.245 mM): 8.415
k2 ([3]; resulting sTCO 0.49 mM): 37571 M⁻¹ s⁻¹
kobs ([3]; resulting sTCO 0.49 mM): 18.41
k2 ([3]; resulting sTCO 0.98 mM): 35796 M⁻¹ s⁻¹
kobs ([3]; resulting sTCO 0.98 mM): 35.08
k2 ([3]; resulting sTCO 1.47 mM): 36857 M⁻¹ s⁻¹
kobs ([3]; resulting sTCO 1.47 mM): 54.18

FCCOCCOCCOC[C@@H]1[C@@H]2CC/C=C/CC[C@@H]21 [^18F-9]
radiochemical purity retained in fetal bovine serum ([1]; 1 hour): 74%
time to clearance by the gallbladder, kidney and liver [4]: ≤ 2 h
radiopurity after incubation in 1× PBS ([2]; 1 hour): 97.5%
radiochemical purity after incubation in 1× PBS [2]: 97.3%
kinetics with diphenyl-s-tetrazines ([3]; general statement of reactivity): > 10^4 M^−1s^−1
